# Data: US4517180A, “Peptides, process for preparing the same and psychodepressant compositions containing the same” (Amano Pharmaceutical Co., Ltd, priority 1982, dated 1985)
# Where a SMILES comes first, the peptide text is derived from it.
# How the values were obtained:
# Assay type in all cases: in vivo
# Male ddy mice [1] = assay: Effect on hyperlocomotion induced by thyrotropin releasing hormone (TRH); settings: for Activity counts (frequency per 60 min): Mean ± S.E.: 30 min before TRH 5 mg/kg i.p., control 1215 ± 114; for Effect on hyperlocomotion induced by TRH (in words): mice, s.c.
# Protocol: Effect on hyperlocomotion induced by thyrotropin releasing hormone (TRH)
# Male ddy mice (weighing 18 to 24.5 g) were used. The mice were placed into a transparent acrylic resin cage (26×37×11 cm) installed on Animex meter. Before experiment, the mice were allowed to habituate for 2 hours in the cage to fully lower the activity of the mice. After the completion of habituation, peptide A, peptide B or a diluent (physiological saline containing 1 mg/ml of sodium hydrogencarbonate) serving as a control was subcutaneously given to the mice. Thirty minutes thereafter, 5 mg/kg of TRH was intraperitoneally given to the animals. The activity counts during the period of 60 minutes following the administration of TRH was measured. Student's t-test was resorted to for statistical treatment.
# Male ddy mice [2] = assay: Effect on climbing behavior induced by apomorphine (Pharmacological Test 2); design: key to Average: Mean ± S.E. (total of 7 scores), climbing behavior: sum of 7 scores; 0 = all four legs on floor, 2 = ≥3 legs on rods; settings: for Average: Mean ± S.E. (total of 7 scores), climbing behavior: 30 min before apomorphine 0.75 mg/kg s.c., control 9.8 ± 0.7; for Effect on apomorphine-induced climbing behavior (in words): mice, s.c.
# Protocol: (§1) Effect on climbing behavior induced by apomorphine
# Male ddy mice (weighing 20 to 30 g) were used, with 10 mice in each group. Each mouse was placed into a cylindrical cage, 12 cm in diameter and 14 cm in height, made up of vertical rods of 2 mm in diameter spaced apart at a distance of 10 mm in a circular arrangement. The mouse was allowed to stand therein for 2 hours. Peptide A, peptide B, CCK-8 or, as a control, the above-mentioned diluent was subcutaneously given to the animal, and 30 minutes later, 0.75 mg/kg of apomorphine was subcutaneously given. […] The test was carried out in soundproof compartments.
# (§2) 0: All the four legs are on the floor.
# (§3) 2: At least three legs are on rods.
# Student's t-test was resorted to for statistical treatment.
# male Wister rats [3] = assay: Effect on metabolism of amine in the brain; settings: 1 mg/kg s.c., 1 hour after administration
# Protocol: Effect on metabolism of amine in the brain
# Unfasted male Wister rats (weighing 180 to 220 g) were used. Peptide A or peptide B was subcutaneously given to the animal at a dose of 1 mg/kg, the head was irradiated with microwave 1 hour thereafter, and amine metabolite was extracted from the brain. First, removed tissues were homogenized with 1M formic acid and centrifuged at 20,000×g for 20 minutes, and the supernatant (1 ml) was shaken with 5 ml of ethyl acetate. The 3,4-dihydroxyphenylacetic acid (DOPAC), homovanillic acid (HVA) and 5-hydroxyindoleacetic acid (5-HIAA) in the ethyl acetate layer were analyzed by high-performance liquid chromatography under the following conditions. Chemcosorb, 5-ODS, 20 cm×4.6 mm I.D. was used for a separating column, and a mobile phase (0.1M KH2 PO4 (pH 5.0)-5 mM EDTA-2Na-5% acetonitrile) was passed through the colunn at a flow rate of 1 ml/min. The electrochemical detector was set to an oxidation potential of +0.8 V.
# male Wister rats [4] = assay: Effect on yawning behavior induced by apomorphine; settings: for Number of yawns (average): 30 min before apomorphine 0.03 mg/kg s.c., counted 30 min, control 4.5; for Effect on yawning behavior induced by apomorphine (in words): rats, s.c.
# Protocol: Effect on yawning behavior
# Male Wister rats (weighing 200 to 300 g) were used, with 10 rats in each group. The rat was placed into a plastics cage (17×24×12 cm) with a floor mat and was then habituated for 30 minutes. Peptide A, peptide B, CCK-8 or the above-mentioned diluent serving as a control was subcutaneously given to the animal. Thirty minutes thereafter, 0.03 mg/kg of apomorphine was subcutaneously given to the animal. The number of yawns induced by apomorphine was counted during a period of 30 minutes following administration of apomorphine. The test was conducted in a soundproof compartment for each animal. Wilcoxon rank-sum test was resorted to for statistical treatment.
# male Wister rats [5] = assay: Effect on the fixed ratio (FR20) responding in rats; settings: s.c., 15 min before 20 min session, dose giving count 50 with control as 100
# Protocol: Effect on the fixed ratio responding in rats
# The test was conducted according to the method described in Ahlenius S. and Engel J., Eur. J. Pharm., Vol. 15, 187-192 (1971).
# Male Wister rats (weighing 240 to 320 g) were placed into Skinner box (product of Bil-Medika Co., Ltd., Japan, adapted to give a feed when a lever within the box is pressed) and made to learn how to take the food. In this test, one feed was given to the rats when the lever was pressed 20 times, i.e., fixed ratio (FR) 20. The rats showing stable FR20 response were divided into groups each including four rats.
# Physiological saline (containing 1 mM of sodium hydrogencarbonate) containing a specified amount of a test compound was subcutaneously given to the rats of one group in a volume of 0.1 ml/100 g. (Physiological saline containing the above-mentioned amount of sodium hydrogencarbonate only was given to the control group). Fifteen minutes after the administration, the test animals were placed in the Skinner box, and the number of times the animals took the feed for 20 minutes was counted. The dose at which the count gained by the group of animals was 50, namely, ED50 value, was determined, with the count gained by the control group calculated as 100. The same procedure as above was repeated with use of the other test compounds.
# Male ICR mice = assay: Inhibitory effect on hyperlocomotion induced by administration of methylphenidate
# Protocol: Inhibitory effect on hyperlocomotion induced by administration of methylphenidate
# Male ICR mice (weighing 24 to 30 g) were divided into groups, each including 10 mice. To one group of mice were subcutaneously given 10 mg/kg of methylphenidate and 0.1 ml/10 g of a saline solution of a specified amount of a test compound and 1 mM of sodium hydrogencarbonate. One hour after the administration, the test animals were checked for hyperlocomotion, which was measured with use of a device for measuring locomotion of small animals (wherein the motion of an animal shifts the center of graavity of the device to actuate a microswitch for the measurement of the amount of motion, see Folia Pharmacologica Japonica, 74, 629-639 (1978). For a control group, the same procedure as above was repeated except that the saline solution given was free from any test compound. The concentration of the test compound at which the result achieved by the group of animals was 50, namely, ED50 value, was determined, with the measurement obtained by the control group calculated as 100. The other compounds were tested in the same manner as above.
# Male ddy mice [6] = assay: Effect on climbing behavior induced by apomorphine (Pharmacological Test 7); design: key: sum of 7 scores; each 0 = four legs on floor, 2 = ≥3 legs on rods; settings: control 9.8 ± 0.7
# Protocol: as §1
# Male ddy mice (weighing 20 to 30 g) were used, with 10 mice in each group. Each mouse was placed into a cylindrical cage, 12 cm in diameter and 14 cm in height, made up of vertical rods of 2 mm in diameter spaced apart at a distance of 10 mm in a circular arrangement. The mouse was allowed to stand therein for 2 hours. Physiological saline containing a specified amount of a test compound (and 1 mM of sodium hydrogencarbonate) was subcutaneously given to one group of mice in a volume of 1 ml/10 g. (The same dose of saline only was given to a control group). […] The test was carried out in soundproof compartments.
# as §2, §3
# The other compounds were tested in the same manner as above. The test was carried out in soundproof compartments. Student's t-test was resorted to for statistical treatment.
SMILES,Activity counts (frequency per 60 min): Mean ± S.E. (Male ddy mice [1]; 0.1 mg/kg s.c.),Activity counts (frequency per 60 min): Mean ± S.E. (Male ddy mice [1]; 0.3 mg/kg s.c.),Effect on hyperlocomotion induced by TRH (in words) (Male ddy mice [1]),"Average: Mean ± S.E. (total of 7 scores), climbing behavior (Male ddy mice [2]; 0.01 mg/kg s.c.)","Average: Mean ± S.E. (total of 7 scores), climbing behavior (Male ddy mice [2]; 0.1 mg/kg s.c.)","Average: Mean ± S.E. (total of 7 scores), climbing behavior (Male ddy mice [2]; 1 mg/kg s.c.)",Effect on apomorphine-induced climbing behavior (in words) (Male ddy mice [2]),Increase of DOPAC content in hypothalamus (male Wister rats [3]),"Influence on content of metabolite (DOPAC, HVA, 5-HIAA) in frontal cortex, limbic forebrain and striatum (male Wister rats [3])",Number of yawns (average) (male Wister rats [4]; 1 mg/kg s.c.),Effect on yawning behavior induced by apomorphine (in words) (male Wister rats [4]),also measured
"CSCC[C@H](NC(=O)[C@H](Cc1ccc(OS(=O)(=O)O)cc1)NC(=O)[C@H](CC(=O)O)NC(=O)CCCC(=O)O)C(=O)NCC(=O)N[C@@H](Cc1c[nH]c2ccccc12)C(=O)N[C@@H](CCSC)C(=O)N[C@@H](CC(=O)O)C(=O)N[C@@H](Cc1ccccc1)C(N)=O [Peptide A, Glt--Asp--Tyr(SO 3 H)--Met--Gly--Trp--Met--Asp--Phe--NH2]",936 ± 115 frequency per 60 min,613 ± 114 frequency per 60 min,inhibit the hyperlocomotion induced by TRH,8.6 ± 0.6,5.3 ± 0.5,4.5 ± 1.0,inhibit the climbing behavior,about 60%,Neither of peptide A and peptide B was found to influence,0,inhibit the yawning behavior induced by apomorphine,"Activity counts (frequency per 60 min): Mean ± S.E. (Male ddy mice [1]; 1 mg/kg s.c.): 148 ± 34 frequency per 60 min; Average: Mean ± S.E. (total of 7 scores), climbing behavior (Male ddy mice [2]; 0.03 mg/kg s.c.): 7.9 ± 0.6; Average: Mean ± S.E. (total of 7 scores), climbing behavior (Male ddy mice [2]; 0.3 mg/kg s.c.): 5.1 ± 0.7; Number of yawns (average) (male Wister rats [4]; 0.3 mg/kg s.c.): 1.5"
"CSCC[C@H](NC(=O)[C@H](Cc1ccc(OS(=O)(=O)O)cc1)NC(=O)CCC(=O)O)C(=O)NCC(=O)N[C@@H](Cc1c[nH]c2ccccc12)C(=O)N[C@@H](CCSC)C(=O)N[C@@H](CC(=O)O)C(=O)N[C@@H](Cc1ccccc1)C(N)=O [Peptide D, Suc--Tyr(SO3 H)--Met--Gly--Trp--Met--Asp--Phe--NH2] (HELM PEPTIDE1{[O=C(O)CCC(=O)[*:2]].[O=C([C@H](Cc1ccc(OS(=O)(=O)O)cc1)N[*:1])[*:2]].M.G.W.M.D.F.[am]}$$$$V2.0)",,,,,,,,,,,,"ED50, inhibition of FR20 responding (male Wister rats [5]): 0.0102 mg/kg; Inhibitory effect on methylphenidate-induced hyperlocomotion (in words) (Male ICR mice; s.c.): especially high inhibitory effect; ED50, inhibition of methylphenidate-induced hyperlocomotion (Male ICR mice; s.c. with methylphenidate 10 mg/kg s.c., measured 1 hour after, 50 with control as 100): 0.0345 mg/kg; Average: Mean ± S.E. (total of 7 scores), climbing behavior (Male ddy mice [6]; 0.1 mg/kg s.c.): 7.0 ± 0.3; Average: Mean ± S.E. (total of 7 scores), climbing behavior (Male ddy mice [6]; 0.3 mg/kg s.c.): 5.9 ± 0.9; Average: Mean ± S.E. (total of 7 scores), climbing behavior (Male ddy mice [6]; 1.0 mg/kg s.c.): 4.5 ± 1.0"
"CSCC[C@H](NC(=O)[C@H](Cc1ccc(OS(=O)(=O)O)cc1)NC(=O)[C@H](CC(=O)O)NC(=O)[C@@H]1CCC(=O)N1)C(=O)NCC(=O)N[C@@H](Cc1c[nH]c2ccccc12)C(=O)N[C@@H](CCSC)C(=O)N[C@@H](CC(=O)O)C(=O)N[C@@H](Cc1ccccc1)C(N)=O [Peptide B, pGlu--Asp--Tyr(SO3 H)--Met--Gly--Trp--Met--Asp--Phe--NH2]",601 ± 78 frequency per 60 min,626 ± 143 frequency per 60 min,inhibit the hyperlocomotion induced by TRH,8.7 ± 0.8,5.4 ± 0.8,4.7 ± 1.1,inhibit the climbing behavior,about 60%,Neither of peptide A and peptide B was found to influence,1.0,inhibit the yawning behavior induced by apomorphine,Activity counts (frequency per 60 min): Mean ± S.E. (Male ddy mice [1]; 0.03 mg/kg s.c.): 1009 ± 165 frequency per 60 min
